Measurements taken from patent US8916593B2, “Alkoxy-substituted 2-aminopyridines as ALK inhibitors” (Pfizer Inc., priority 2010, dated 2014).

Legend:
ALK enzyme = target: T1, ALK enzyme (Homo sapiens, UniProt Q9UM73); assay: ALK enzymatic activity assay 1; type: biochemical
T1 construct: purchased Invitrogen PV4185
Method: ALK Enzymatic Activity Assay 1
Compounds were added at a final concentration of 1% DMSO in half-log dilutions, starting at 20 μM final concentration. The reactions were initiated by the addition of 10 μL of peptide/ATP mix to 10 μL enzyme and 2 μL of compound in 384-well plate. […] On the 12-sipper chip, substrate and phosphorylated product were separated with an upstream voltage of −2650 V, a downstream voltage of −500 V, and a screen pressure of −1.5 psi. The relative peak heights of substrate and product were measured and ratios were calculated using HTS Well Analyzer Software version 5.2.43 from the manufacturer.

cMet enzyme = target: T2, cMet enzyme (Homo sapiens, UniProt P08581); assay: cMet enzymatic activity assay; type: biochemical; conditions: purified cMet enzyme 7.5 nM, ATP 17 μM (Km)
T2 construct: RTC Lot#032006
Method: cMet Enzymatic Activity Assay
Compounds were added at a final concentration of 2% DMSO in half-log dilutions, starting at 20 μM final concentration. The reactions were initiated by addition of 10 μL of peptide/ATP mix to 10 μL enzyme and 5 μL of compound in 384-well plate. […] Substrate and phosphorylated product were separated with an upstream voltage of −2650 V, a downstream voltage of −500V, and a screen pressure of −1.5 psi. The relative peak heights of substrate and product were measured and ratios were calculated using HTS Well Analyzer Software version 5.2.43 from the manufacturer.

[1] = target: T3, human recombinant wild-type ALK kinase domain (amino acids 1093-1411) (Homo sapiens, UniProt Q9UM73); assay: ALK enzyme assay 2 (microfluidic mobility shift assay); type: biochemical;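 note: kinase reaction run 1 h at room temperature, conversion quantified by electrophoretic separation of fluorescent peptide substrate from phosphorylated product, about 15-20% turnover without inhibitor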
T3 construct: ALK kinase domain (amino acids 1093-1411); made in house
Method: The reactions were incubated for 1 h at room temperature, stopped by the addition of 0.1 M EDTA, pH 8, and the extent of reactions (˜15-20% conversion with no inhibitor) was determined after electrophoretic separation of the fluorescently labeled peptide substrate and phosphorylated product on an LabChip EZ Reader II (Caliper Life Sciences, Hopkinton, Mass.).

[2] = target: EML4-ALK wt v1 in NIH-3T3 cells (Homo sapiens, UniProt Q9UM73)
EML4-ALK wt v1 in NIH-3T3 cells, sequence (Q9UM73 with tags, fused parts or gaps): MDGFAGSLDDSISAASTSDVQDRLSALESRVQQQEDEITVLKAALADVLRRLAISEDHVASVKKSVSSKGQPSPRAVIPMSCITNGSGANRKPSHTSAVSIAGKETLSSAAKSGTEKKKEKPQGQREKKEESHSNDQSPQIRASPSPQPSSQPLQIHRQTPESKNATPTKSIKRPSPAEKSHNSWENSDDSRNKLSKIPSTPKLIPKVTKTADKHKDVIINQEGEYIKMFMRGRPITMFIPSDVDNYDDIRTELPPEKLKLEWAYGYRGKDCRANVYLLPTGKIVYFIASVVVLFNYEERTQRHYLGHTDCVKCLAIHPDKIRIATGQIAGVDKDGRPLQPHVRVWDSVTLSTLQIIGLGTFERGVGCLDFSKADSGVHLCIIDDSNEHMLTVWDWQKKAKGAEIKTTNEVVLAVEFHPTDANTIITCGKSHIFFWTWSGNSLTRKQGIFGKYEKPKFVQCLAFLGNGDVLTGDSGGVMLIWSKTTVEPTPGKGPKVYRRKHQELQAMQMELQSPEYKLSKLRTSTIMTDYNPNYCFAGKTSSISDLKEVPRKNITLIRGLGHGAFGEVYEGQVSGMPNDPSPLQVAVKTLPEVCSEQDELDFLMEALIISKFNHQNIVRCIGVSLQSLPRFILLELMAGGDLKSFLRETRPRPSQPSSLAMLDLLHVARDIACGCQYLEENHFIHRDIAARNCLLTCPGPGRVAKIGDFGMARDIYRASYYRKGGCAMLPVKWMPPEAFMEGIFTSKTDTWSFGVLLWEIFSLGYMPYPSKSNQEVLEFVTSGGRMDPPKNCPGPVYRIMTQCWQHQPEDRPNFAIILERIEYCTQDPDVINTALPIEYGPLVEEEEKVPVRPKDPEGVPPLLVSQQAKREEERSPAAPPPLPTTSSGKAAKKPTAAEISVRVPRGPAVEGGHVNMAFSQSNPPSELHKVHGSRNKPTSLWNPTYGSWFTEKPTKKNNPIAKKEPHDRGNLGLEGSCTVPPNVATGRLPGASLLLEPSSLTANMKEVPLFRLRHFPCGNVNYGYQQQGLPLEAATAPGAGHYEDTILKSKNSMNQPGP

T1 sequence (Q9UM73 19-1620): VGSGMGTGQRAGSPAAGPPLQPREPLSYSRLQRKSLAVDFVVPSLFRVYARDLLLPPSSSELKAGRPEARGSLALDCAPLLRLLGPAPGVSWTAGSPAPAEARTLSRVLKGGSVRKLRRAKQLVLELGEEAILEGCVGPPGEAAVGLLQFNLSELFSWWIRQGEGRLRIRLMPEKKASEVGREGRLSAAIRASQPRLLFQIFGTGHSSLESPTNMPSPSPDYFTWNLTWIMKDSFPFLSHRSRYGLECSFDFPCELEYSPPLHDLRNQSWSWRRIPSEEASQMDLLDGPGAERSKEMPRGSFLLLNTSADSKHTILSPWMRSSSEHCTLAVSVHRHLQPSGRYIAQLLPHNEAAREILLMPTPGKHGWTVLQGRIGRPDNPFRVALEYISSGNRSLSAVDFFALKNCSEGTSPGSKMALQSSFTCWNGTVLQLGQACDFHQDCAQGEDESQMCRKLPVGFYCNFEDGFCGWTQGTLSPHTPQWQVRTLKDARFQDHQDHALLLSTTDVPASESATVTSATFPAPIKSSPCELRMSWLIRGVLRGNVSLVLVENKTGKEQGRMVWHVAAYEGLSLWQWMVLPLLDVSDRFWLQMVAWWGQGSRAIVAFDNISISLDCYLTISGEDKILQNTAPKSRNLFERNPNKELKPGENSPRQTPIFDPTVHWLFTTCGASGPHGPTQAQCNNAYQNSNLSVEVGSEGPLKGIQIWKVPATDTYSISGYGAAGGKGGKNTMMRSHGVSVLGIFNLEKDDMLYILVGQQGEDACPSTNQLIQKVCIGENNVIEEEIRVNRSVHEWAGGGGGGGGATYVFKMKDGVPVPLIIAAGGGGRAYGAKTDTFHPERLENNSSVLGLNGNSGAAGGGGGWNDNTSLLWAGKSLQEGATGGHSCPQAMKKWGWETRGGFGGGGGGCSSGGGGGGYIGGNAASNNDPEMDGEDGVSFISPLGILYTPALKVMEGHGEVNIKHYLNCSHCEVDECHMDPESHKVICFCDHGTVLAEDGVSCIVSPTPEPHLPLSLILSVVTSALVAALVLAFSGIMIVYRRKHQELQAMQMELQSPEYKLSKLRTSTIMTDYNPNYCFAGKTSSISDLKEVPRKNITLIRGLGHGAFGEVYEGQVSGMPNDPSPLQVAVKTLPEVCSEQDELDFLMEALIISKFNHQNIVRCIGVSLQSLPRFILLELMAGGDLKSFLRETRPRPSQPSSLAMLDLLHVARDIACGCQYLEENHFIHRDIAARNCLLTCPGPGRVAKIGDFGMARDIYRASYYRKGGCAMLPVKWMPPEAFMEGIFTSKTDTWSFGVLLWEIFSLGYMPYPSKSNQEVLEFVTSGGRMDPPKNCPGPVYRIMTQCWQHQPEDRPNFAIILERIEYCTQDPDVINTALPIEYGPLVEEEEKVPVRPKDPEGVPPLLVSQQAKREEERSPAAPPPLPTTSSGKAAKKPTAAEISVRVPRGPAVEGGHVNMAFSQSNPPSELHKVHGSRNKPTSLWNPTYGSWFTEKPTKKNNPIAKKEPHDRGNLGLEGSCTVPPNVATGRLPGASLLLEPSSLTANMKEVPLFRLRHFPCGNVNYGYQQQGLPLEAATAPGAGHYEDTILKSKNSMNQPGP
T3 sequence (Q9UM73 1093-1411): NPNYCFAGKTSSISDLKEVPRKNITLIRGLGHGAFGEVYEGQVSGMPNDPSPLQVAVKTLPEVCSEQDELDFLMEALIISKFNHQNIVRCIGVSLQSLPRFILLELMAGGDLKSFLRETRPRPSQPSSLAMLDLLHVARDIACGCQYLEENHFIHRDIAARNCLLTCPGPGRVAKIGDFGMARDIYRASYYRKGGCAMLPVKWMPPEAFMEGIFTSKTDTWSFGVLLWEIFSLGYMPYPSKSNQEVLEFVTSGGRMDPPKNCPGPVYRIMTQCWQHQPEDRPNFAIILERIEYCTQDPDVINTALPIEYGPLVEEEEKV
T2 sequence (P08581 25-1390): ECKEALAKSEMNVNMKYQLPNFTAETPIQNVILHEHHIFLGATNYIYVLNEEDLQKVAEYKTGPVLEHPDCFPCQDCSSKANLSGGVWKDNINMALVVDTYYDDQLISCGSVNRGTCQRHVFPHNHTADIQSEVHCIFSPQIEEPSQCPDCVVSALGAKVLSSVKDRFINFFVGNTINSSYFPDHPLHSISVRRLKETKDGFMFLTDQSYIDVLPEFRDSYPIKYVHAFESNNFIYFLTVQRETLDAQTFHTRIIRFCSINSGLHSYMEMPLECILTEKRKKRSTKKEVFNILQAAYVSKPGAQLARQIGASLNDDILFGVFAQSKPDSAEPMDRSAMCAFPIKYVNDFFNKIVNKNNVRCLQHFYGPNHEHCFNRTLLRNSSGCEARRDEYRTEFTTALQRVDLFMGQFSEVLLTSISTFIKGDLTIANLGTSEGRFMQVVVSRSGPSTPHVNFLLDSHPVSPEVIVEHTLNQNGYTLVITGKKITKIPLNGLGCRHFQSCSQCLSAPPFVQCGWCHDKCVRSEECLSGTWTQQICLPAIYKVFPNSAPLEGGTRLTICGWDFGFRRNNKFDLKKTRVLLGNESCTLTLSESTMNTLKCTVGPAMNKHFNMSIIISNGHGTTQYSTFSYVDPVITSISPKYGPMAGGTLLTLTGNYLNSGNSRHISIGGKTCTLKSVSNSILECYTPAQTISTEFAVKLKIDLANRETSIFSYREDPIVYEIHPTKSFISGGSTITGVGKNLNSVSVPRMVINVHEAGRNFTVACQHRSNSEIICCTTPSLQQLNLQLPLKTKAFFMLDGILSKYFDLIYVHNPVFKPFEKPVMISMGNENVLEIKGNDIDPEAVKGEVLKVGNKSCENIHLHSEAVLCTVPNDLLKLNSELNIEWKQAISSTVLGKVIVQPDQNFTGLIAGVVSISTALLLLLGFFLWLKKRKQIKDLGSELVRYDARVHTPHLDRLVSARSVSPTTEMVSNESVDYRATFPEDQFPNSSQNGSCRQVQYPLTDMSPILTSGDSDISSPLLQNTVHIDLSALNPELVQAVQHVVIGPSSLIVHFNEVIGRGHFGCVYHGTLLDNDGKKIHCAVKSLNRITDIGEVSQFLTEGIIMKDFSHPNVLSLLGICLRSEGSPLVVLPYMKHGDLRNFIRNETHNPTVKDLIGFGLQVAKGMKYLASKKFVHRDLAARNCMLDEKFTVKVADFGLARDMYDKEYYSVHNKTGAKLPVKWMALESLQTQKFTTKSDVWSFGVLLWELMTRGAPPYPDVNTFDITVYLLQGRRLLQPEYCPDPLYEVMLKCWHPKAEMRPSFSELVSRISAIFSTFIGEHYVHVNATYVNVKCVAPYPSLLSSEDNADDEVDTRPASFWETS

| SMILES | IC50 (ALK enzyme) [nM] | IC50 (cMet enzyme) [nM] | Ki [1] [nM] | IC50 [2] [nM] |
| --- | --- | --- | --- | --- |
| COc1ccc(F)cc1C(C)Oc1cc(-c2cc(Cl)nnc2N)cnc1N (stereo not drawn) [Example 17, 4-{6-amino-5-[1-(5-fluoro-2-methoxyphenyl)ethoxy]-pyridin-3-yl}-6-chloropyridazin-3-amine] | 133 | 13200 | 11 | 672 |
| CC(Oc1cc(-c2ccnn2C)cnc1N)c1cc(F)ccc1-n1cccn1 (stereo not drawn) [Example 37, 3-{1-[5-fluoro-2-(1H-pyrazol-1-yl)phenyl]-ethoxy}-5-(1-methyl-1H-pyrazol-5-yl)pyridin-2-amine] | 70.3 | 8090 | 1.55 | 147 |
| CC(Oc1cc(-c2ccnn2C)cnc1N)c1cc(F)ccc1-n1ccnn1 (stereo not drawn) [Example 32, 3-{1-[5-fluoro-2-(1H-1,2,3-triazol-1-yl)phenyl]-ethoxy}-5-(1-methyl-1H-pyrazol-5-yl)pyridin-2-amine] | 105 | > 20000 | 36 | 883 |
| Cc1n[nH]c(C)c1-c1cnc(N)c(OC(C)c2cc(F)ccc2-n2cccn2)c1 (stereo not drawn) [Example 52, 5-(3,5-dimethyl-1H-pyrazol-4-yl)-3-{1-[5-fluoro-2-(1H-pyrazol-1-yl)phenyl]-ethoxy}pyridin-2-amine] | 73.3 | 10400 | 1.1 | 14.5 |
| COc1ncc(F)cc1[C@@H](C)Oc1cc(-c2ccnn2C)cnc1N [Example 34, 3-[(1R)-1-(5-fluoro-2-methoxypyridin-3-yl)ethoxy]-5-(1-methyl-1H-pyrazol-5-yl)pyridin-2-amine] | 71.1 | > 17800 | 3.8 | 302 |
| COc1ccc(F)cc1C(C)Oc1nc(-c2nccn2C)cnc1N (stereo not drawn) [Example 60, 3-[1-(5-fluoro-2-methoxyphenyl)ethoxy]-5-(1-methyl-1H-imidazol-2-yl)pyrazin-2-amine] | 67.3 | > 20000 | 6.4 | 555 |
| COc1ccc(F)cc1C(C)Oc1cc(-c2cnn(C)c2CO)cnc1N (stereo not drawn) [Example 12, (4-{6-amino-5-[1-(5-fluoro-2-methoxyphenyl)ethoxy]-pyridin-3-yl}-1-methyl-1H-pyrazol-5-yl)methanol] | 70.6 | 8420 | 2.1 | 194 |
| COc1ccc(F)cc1C(C)Oc1cc(-c2cnnn2CCO)cnc1N (stereo not drawn) [Example 2, 2-(5-{6-amino-5-[1-(5-fluoro-2-methoxyphenyl)ethoxy]-pyridin-3-yl}-1H-1,2,3-triazol-1-yl)ethanol] | 135 | > 20000 | 220 | > 1000 |
| C=Cn1nnc(C)c1-c1cnc(N)c(OC(C)c2cc(F)ccc2OC)c1 (stereo not drawn) [Example 1, 3-[1-(5-Fluoro-2-methoxyphenyl)ethoxy]-5-(4-methyl-1-vinyl-1H-1,2,3-triazol-5-yl)pyridin-2-amine] | 61.4 | > 18800 | 2.9 | 144 |

Stronger by IC50 (ALK enzyme), values ahead:

| IC50 (ALK enzyme) [nM] | IC50 (cMet enzyme) [nM] | Ki [1] [nM] | IC50 [2] [nM] | SMILES |
| --- | --- | --- | --- | --- |
| 50.2 | 5070 | 0.739 | 58.4 | COc1ccncc1-c1cnc(N)c(OC(C)c2cc(F)ccc2OC)c1 (stereo not drawn) [Example 50, 5-[1-(5-fluoro-2-methoxyphenyl)-ethoxy]-4′-methoxy-3,3′-bipyridin-6-amine] |
| 47.2 | > 18200 | 1.3 | 194 | COc1ccc(F)cc1C(C)Oc1cc(-c2c(C)noc2C)cnc1N (stereo not drawn) [Example 54, 5-(3,5-dimethylisoxazol-4-yl)-3-[1-(5-fluoro-2-methoxyphenyl)-ethoxy]pyridin-2-amine] |
| 52.2 | > 20000 | 6.3 | 245 | COc1ccc(F)cc1C(C)Oc1cc(-c2ccnn2CCO)cnc1N (stereo not drawn) [Example 11, 2-(5-{6-amino-5-[1-(5-fluoro-2-methoxyphenyl)ethoxy]-pyridin-3-yl}-1H-pyrazol-1-yl)ethanol] |
| 47.3 | > 15400 | 3.1 | 138 | COc1ccc(F)cc1[C@@H](C)Oc1cc(-c2cccnc2CO)cnc1N [Example 27, {6′-amino-5′-[(1R)-1-(5-fluoro-2-methoxyphenyl)-ethoxy]-3,3′-bipyridin-2-yl}methanol] |
| 50.5 | 2810 | 4.52 | 191 | CC(Oc1cc(-c2ccnn2C)cnc1N)c1cc(F)ccc1-c1ncco1 (stereo not drawn) [Example 62, 3-{1-[5-fluoro-2-(1,3-oxazol-2-yl)phenyl]ethoxy}-5-(1-methyl-1H-pyrazol-5-yl)pyridin-2-amine] |
| 45.2 | 7870 | 61 | 1450 | CC(Oc1cc(-c2ccnn2C)cnc1N)c1cc(F)cc2cccnc12 (stereo not drawn) [Example 51, 3-[1-(6-fluoroquinolin-8-yl)ethoxy]-5-(1-methyl-1H-pyrazol-5-yl)pyridin-2-amine] |
| 57 | 6480 | 6.9 | 411 | CC(Oc1cc(-c2ccnn2C)cnc1N)c1cc(F)ccc1C#N (single isomer, unassigned) [Example 44] |
| 24.1 | 4300 | < 0.313 | 4.54 | COc1ccc(F)cc1[C@@H](C)Oc1cc(-c2c(C)nn(CC(O)CO)c2C)cnc1N (stereo partly drawn) [Example 26, 3-(4-{6-amino-5-[(1R)-1-(5-fluoro-2-methoxyphenyl)-ethoxy]pyridin-3-yl}-3,5-dimethyl-1H-pyrazol-1-yl)propane-1,2-diol] |
| 58.7 | > 20000 | 5.4 | 245 | COc1ccc(F)cc1C(C)Oc1nc(-c2cn(C)c(C)n2)cnc1N (stereo not drawn) [Example 57, 5-(1,2-dimethyl-1H-imidazol-4-yl)-3-[1-(5-fluoro-2-methoxyphenyl)ethoxy]pyrazin-2-amine] |
